# Source: US8188069B2, “Azepine derivatives as gamma-secretase inhibitors” (Eli Lilly and Company, priority 2007, dated 2012)
# Key:
# [1] = system: Hippocampal Total A-beta; assay: In vivo suppression of β-amyloid, brain assay (hippocampal total A-beta ELISA); details: young heterozygous PDAPP mice, sacrifice 3 hours post-administration
# Protocol: (§1) This example illustrates how the compounds of this invention could be tested for in vivo suppression of β-amyloid release and/or synthesis. For these experiments, 3 to 4 month old PDAPP mice are used [Games et al., (1995) Nature 373:523-527]. Depending upon which compound is being tested, the compound is usually formulated at between 1 and 10 mg/mL. Because of the low solubility factors of the compounds, they may be formulated with various vehicles, such as corn oil; 10% ethanol in corn oil; 2-hydroxypropyl-β-cyclodextrin (Research Biochemicals International, Natick, Mass.); and carboxy-methyl-cellulose (Sigma Chemical Co., St. Louis, Mo.).
# For acute efficacy studies, PDAPP mice are dosed orally by gavage and 3 hours later the animals are euthanized via CO2 narcosis. For sub-chronic studies, PDAPP mice are dosed once-a-day or twice-a-day for 7 days, and sacrificed 3 hours after the last dose. Blood is taken by cardiac puncture using a 1 cc 25G ⅝″ tuberculin syringe/needle coated with solution of 0.5 M EDTA, pH 8.0. The blood is placed in a Becton-Dickinson vacutainer tube containing EDTA and spun down for 15 minutes at 1500×g at 5° C. The brains of the mice are then removed and the cortex and hippocampus are dissected out, placed in labeled eppendorf tubes and rapidly frozen on dry ice.
# To prepare hippocampal and cortical tissue for enzyme-linked immunosorbent assays (ELISAs) each brain region is homogenized in 10 volumes of ice cold guanidine buffer (5.0 M guanidine-HCl, 50 mM Tris-HCl, pH 8.0) using a Polytron. The homogenates are gently rocked on a rotating platform for three to four hours at room temperature and stored at −20° C. prior to quantitation of β-amyloid.
# The brain homogenates are diluted 1:10 with ice-cold casein buffer [0.25% casein, phosphate buffered saline (PBS), 0.05% sodium azide, 20 μg/ml aprotinin, 5 mM EDTA, pH 8.0, 10 μg/ml leupeptin], thereby reducing the final concentration of guanidine to 0.5 M, before centrifugation at 16,000×g for 20 minutes at 4° C. Samples are further diluted, if necessary, to achieve an optimal range for the ELISA measurements by the addition of casein buffer with 0.5 M guanidine hydrochloride added. The β-amyloid standards (1-40 or 1-42 amino acids) are prepared such that the final composition equaled 0.5 M guanidine in the presence of 0.1% bovine serum albumin (BSA).
# The Total β-amyloid 1-x sandwich ELISA, quantitating essentially all species of β-amyloid (including β-amyloid 1-40 and β-amyloid 1-42), employs two monoclonal antibodies (mAb) to β-amyloid. The capture antibody, 266 [P. Seubert, Nature (1992) 359:325-327], is specific to amino acids 13-28 of β-amyloid. The antibody 3D6 [Johnson-Wood et al., PNAS USA (1997) 94:1550-1555], which is specific to amino acids 1-5 of β-amyloid, is biotinylated and served as the reporter antibody in the assay. The 3D6 biotinylation procedure employs the manufacturer's (Pierce, Rockford, Ill.) protocol for NHS-biotin labeling of immunoglobulins except that 100 mM sodium bicarbonate, pH 8.5 buffer is used.
# The 266 and 21F12 capture mAbs are coated at 10 μg into 96-well immunoassay plates (Costar, Cambridge, Mass.) overnight at room temperature. The plates are then aspirated and blocked with 0.25% human serum albumin in PBS buffer for at least 1 hour at room temperature, then stored desiccated at 4° C. until use. The plates are rehydrated with wash buffer (Tris-buffered saline, 0.05% Tween 20) prior to use. […]
# [2] = system: plasma A-beta; assay: In vivo suppression of β-amyloid, blood assay (plasma total β-amyloid ELISA); parameters: species or system PDAPP mice; details: 3 mg/kg b.i.d. for 7 days; p<0.001 relative to vehicle control
# Protocol: as §1
# For acute efficacy studies, PDAPP mice are dosed orally by gavage and 3 hours later the animals are euthanized via CO2 narcosis. For sub-chronic studies, PDAPP mice are dosed once-a-day or twice-a-day for 7 days, and sacrificed 3 hours after the last dose. […]
# The Total β-amyloid 1-x sandwich ELISA, quantitating essentially all species of β-amyloid (including β-amyloid 1-40 and β-amyloid 1-42), employs two monoclonal antibodies (mAb) to β-amyloid. […]
# The 266 and 21F12 capture mAbs are coated at 10 μg into 96-well immunoassay plates (Costar, Cambridge, Mass.) overnight at room temperature. […] Reaction product is quantified using a Molecular Devices Vmax (Molecular Devices, Menlo Park, Calif.) measuring the difference in absorbance at 450 nm and 650 nm. […]
# [3] = system: β-amyloid peptide production in 293 751 SWE cells (HEK293 transfected with APP751 Swedish mutation); assay: In vitro inhibition of β-amyloid production (ELISA, 293 751 SWE cells); assay type: cell-based, human; details: two hour incubation, n = 3
# Protocol: This screening assay employed cells (HEK293=human kidney cell line) which were stably transfected with the gene for amyloid precursor protein 751 (APP751) containing the double mutation Lys651Met652 to Asn651Leu652 (APP751 numbering) in the manner described in International Patent Application Publication No. 94/10569. This mutation is commonly called the Swedish mutation and the cells, designated as “293 751 SWE”, were plated in Corning 96-well plates at 2-4×10^4 cells per well in Dulbecco's minimal essential media (Sigma, St. Louis, Mo.) plus 10% fetal bovine serum. Cell number is important in order to achieve β-amyloid ELISA results within the linear range of the assay (˜0.03 to 1.0 ng per mL).
# Following overnight incubation at 37° C. in an incubator equilibrated with 5% carbon dioxide, media are removed and replaced with a stock solution of test compound (200 μL per well) for a two hour incubation period.
# At the end of the incubation period, 100 μL from each well, of conditioned media or appropriate dilutions thereof are transferred into an ELISA plate pre-coated with antibody 266 [P. Seubert, Nature (1992) 359:325-327] against amino acids 13-28 of β-amyloid peptide as described in International Patent Application Publication No. 94/10569 and stored at 4° C. overnight. An ELISA assay employing labeled antibody 3D6 [P. Seubert, Nature (1992) 359:325-327] against amino acids 1-5 of β-amyloid peptide is run the next day to measure the amount of β-amyloid peptide produced. The results of the β-amyloid peptide ELISA are fit to a standard curve and expressed as ng/mL β-amyloid peptide and the concentration of test compounds producing 50% inhibition (IC50) of β-amyloid peptide production are estimated using a four parameter logistic model within Graph Pad Prism (San Diego, Calif.).
compound,measurement,setting,value
"CC(C)[C@H](O)C(=O)N[C@@H](C)C(=O)N[C@H]1C=C(c2ccccc2)C=CN(C)C1=O (single isomer, unassigned) [1 (diasteromer 2)]",Hippocampal Total A-beta % REDUCTION,"[1]; 0.1 mg/kg oral, n = 1 experiment",18%
same,Hippocampal Total A-beta % REDUCTION,"[1]; 0.3 mg/kg oral, mean ± SD, n = 2 experiments",31 ± 13%
same,Hippocampal Total A-beta % REDUCTION,"[1]; 1 mg/kg oral, mean ± SD, n = 3 experiments",48 ± 11%
same,Hippocampal Total A-beta % REDUCTION,"[1]; 3 mg/kg oral, mean ± SD, n = 5 experiments",59 ± 5%
same,Hippocampal Total A-beta % REDUCTION,"[1]; 10 mg/kg oral, n = 1 experiment",69%
same,reduction of plasma A-beta,[2],54%
same,IC50,"[3]; Homo sapiens, HEK293, 2 h",5 ± 0.7 nM
"CC(C)C1=CC(NC(=O)[C@H](C)NC(=O)[C@@H](O)C(C)C)C(=O)N(C)C=C1 (single isomer, unassigned) [3 (diastereomer 1)]",IC50,[3],10700 ± 1800 nM
"CC(C)[C@H](F)C(=O)N[C@@H](C)C(=O)NC1C=C(c2ccccc2)C=CN(C)C1=O (single isomer, unassigned) [2 (diastereomer 2)]",IC50,[3],8 ± 0.8 nM
"CC(C)[C@H](F)C(=O)N[C@@H](C)C(=O)NC1C=C(c2ccccc2)C=CN(C)C1=O (single isomer, unassigned) [2 (diastereomer 1)]",IC50,[3],3330 ± 430 nM
"CC(C)C1=CC(NC(=O)[C@H](C)NC(=O)[C@@H](O)C(C)C)C(=O)N(C)C=C1 (single isomer, unassigned) [3 (diastereomer 2)]",IC50,[3],36 ± 1 nM
